The text below walks through data of ChEMBL document CHEMBL1144309, “Specific recognition of napthyridine-based ligands toward guanine-containing bulges in RNA duplexes and RNA-DNA heteroduplexes” (Bioorg Med Chem Lett, 2005).

Assay [1] deals with Human immunodeficiency virus 1. The assay can be described thus: Dissociation constant was measured against HIV-1 RNA construct I (present in HIV-1 RRE IIB RNA region). It counts as functional.
Assay [2] has as its system Human immunodeficiency virus 1. Nature of the assay: Dissociation constant was measured against HIV-1 RNA construct K (present in HIV-1 RRE IIB RNA region). It counts as functional.
For assay [3], the system named is Human immunodeficiency virus 1. Nature of the assay: Dissociation constant was measured against HIV-1 RNA construct J (present in HIV-1 RRE IIB RNA region). It is filed as functional.
In assay [4] the test system is Human immunodeficiency virus 1. The assay can be described thus: Dissociation constant was measured against HIV-1 RNA construct F (present in HIV-1 RRE IIB RNA region); N.B. = no measurable binding. It counts as functional, organism-based.
In assay [5] the test system is Human immunodeficiency virus 1. Nature of the assay: Dissociation constant was measured against HIV-1 RNA construct G (present in HIV-1 RRE IIB RNA region); N.B. = no measurable binding. It is filed as functional, organism-based.
Assay [6] relates to Human immunodeficiency virus 1. Nature of the assay: Dissociation constant was measured against HIV-1 RNA construct D (present in HIV-1 RRE IIB RNA region). It is filed as functional.
In assay [7] the test system is Human immunodeficiency virus 1. The assay can be described thus: Dissociation constant was measured against HIV-1 RNA construct A (present in HIV-1 RRE IIB RNA region). It counts as functional.
Assay [8] has as its system Human immunodeficiency virus 1. The assay can be described thus: Dissociation constant was measured against HIV-1 RNA construct B (present in HIV-1 RRE IIB RNA region). It counts as functional.
The subject of assay [9] is Human immunodeficiency virus 1. The assay can be described thus: Dissociation constant was measured against HIV-1 RNA construct H (present in HIV-1 RRE IIB RNA region); N.B. = no measurable binding. It is filed as functional, organism-based.
Assay [10] concerns Human immunodeficiency virus 1. The assay can be described thus: Dissociation constant was measured against HIV-1 RNA construct E (present in HIV-1 RRE IIB RNA region); N.B. = no measurable binding. It counts as functional.
Assay [11] relates to Human immunodeficiency virus 1. Nature of the assay: Dissociation constant was measured against HIV-1 RNA construct C (present in HIV-1 RRE IIB RNA region). It is filed as functional.

The term Kd denotes a measure of binding affinity in units of concentration. Lower therefore signals a tighter complex. In the case of `Cc1ccc2ccc(NC(=O)CCNCCNCCC(=O)Nc3ccc4ccc(C)nc4n3)nc2n1`, the Kd in assay [1] came out at 35.1 µM; in [2] it was 34.9 µM; in assay [3] it was 32.3 µM.
As to `Cc1ccc2ccc(NC(=O)CCN)nc2n1`, the equilibrium dissociation constant (Kd) entry is “No binding” in [4]; “No binding” in [5]; 3.2 µM in assay [6]; 1.4 µM in assay [7]; 2.4 µM in assay [8]; “No binding” in assay [9]. In addition, the dissociation constant Kd entry is “No binding” in assay [10] and 2.9 µM in assay [11].
